As a reminder, the IC50 is the concentration needed to halve the response being measured.

The structures appear in SMILES notation. Counter-ions that a name gives are not always drawn. Like-named read-outs stand apart in the source and are kept apart here.

Assay type in all cases: cell-based
Test [1] deals with RH7777 rat hepatoma cells. The test is described as follows: SRB cytotoxicity assay, RH7777 control cell line. To be noted: read-out: IC50 RH7777. The protocol: (§1) For in vitro cytotoxicity screening, 1000 to 5000 cells were plated into each well of 96-well plates depending on growth rate, and exposed to different concentrations of a test compound for 96 h in three to five replicates. All the compounds were dissolved in dimethyl sulfoxide at 5 to 20 mM, and diluted to desired concentrations in complete culture medium. Cell numbers at the end of the drug treatment were measured by the SRB assay (Gududuru et al., “Synthesis and Biological Evaluation of Novel Cytotoxic Phospholipids for Prostate Cancer,” Bioorg. Med. Chem. Lett. 14:4919-4923 (2004); Rubinstein et at., “Comparison of in vitro Anticancer-Drug-Screening Data Generated with a Tetrazolium Assay Versus a Protein Assay Against a Diverse Panel of Human Tumor Cell Lines,” J. Naatl, Cancer Inst. 82:1113-1118 (1990), each of which is hereby incorporated by reference in its entirety). Briefly, the cells were fixed with 10% of trichloroacetic acid, stained with 0.4% SRB, and the absorbances at 540 nm was measured using a plate reader (DYNEX Technologies, Chantilly, Va.).
(§2) The antiproliferative activity of all the synthesized compounds was evaluated against five human prostate cancer cell lines and in RH7777 cells (negative control) using the sulforhodamine B (SRB) assay (see description in Example 5 above).
(§3) The chosen cell lines represent different basal levels of active AKT and LPL receptor expression (discussed later). Cells were exposed to a wide range of concentrations (0 to 100 μM) of the indicated compound for 96 h. Cell numbers at the end of treatment were measured using the sulforhodamine B (SRB) assay^5.
(§4) Cells were exposed to a wide range of concentrations (0 to 100 μM) of the particular compound for 96 h in 96 well plates. Cells were fixed with 10% trichloroacetic acid, washed five times with water. The plates were air dried overnight and fixed cells were stained with SRB solution. The cellular protein-bound SRB was measured at 540 nm using a plate reader. Cell numbers at the end of the treatment were measured.
(§5) Cells were exposed to a wide range of concentrations (0 to 100 μM) of the particular compound for 96 h in 96-well plates. Cells were fixed with 10% trichloroacetic acid, washed five times with water. The plates were air dried overnight and fixed cells were stained with SRB solution. The cellular protein-bound SRB was measured at 540 nm using a plate reader. Cell numbers at the end of the treatment were calculated as a percentage of untreated control.
(In general: The SRB assay estimates cell density from bound dye.)

Test [2] concerns DU-145 human prostate cancer cells. The test is described as follows: SRB cytotoxicity assay, DU-145. The protocol:
as §1, §2, §3, §4, §5

The subject of test [3] is PC-3 human prostate cancer cells. As to the kind of experiment: SRB cytotoxicity assay, PC-3. To be noted: for IC50: read-out: IC50 PC-3. As for the experimental part: as §1, §2, §3, §4, §5
For test [4], the system named is LNCaP human prostate cancer cells. As to the kind of experiment: SRB cytotoxicity assay, LNCaP. Particulars: for IC50: read-out: IC50 LNCaP. The protocol:
as §1, §2, §3, §4, §5

For test [5], the system named is PPC-1 human prostate cancer cells. The test is described as follows: SRB cytotoxicity assay, PPC-1. Particulars: read-out: IC50 PPC-1. The protocol:
(§6) Dr. Mitchell Steiner at University of Tennessee Health Science Center, kindly provided PPG-1 and TSU-PrI cells.
as §1, §2, §3, §4, §5

The test system of test [6] is TSU-Pr1 human prostate cancer cells. The test is described as follows: SRB cytotoxicity assay, TSU-Pr1. The protocol:
as §6, §1, §2, §3, §4, §5

Test [7] has as its system human breast cancer cell line (MCF-7). The test is described as follows: SRB cytotoxicity assay, MCF-7. Particulars: read-out: IC50 MCF-7. The protocol:
as §1
In vitro cytotoxicity assay was performed by the same sulforhodamine B (SRB) assay (described above). The compounds shown in Table 8 below where tested for activity against the breast cancer and ovarian cancer cell lines.
as §3, §4

The mark [8] stands for this setting: Rattus norvegicus, RH7777, Table 3, control cell line, 96 h.
[9] abbreviates: Homo sapiens, DU-145, read-out: IC50 DU-145, Table 3, 96 h.
[10] abbreviates: Homo sapiens, LNCaP, Table 3, 96 h.
Where [11] appears, read: Homo sapiens, PPC-1, Table 3, 96 h.
Where [12] appears, read: Homo sapiens, MCF7, Table 8, breast cancer cell line.
The mark [13] stands for this setting: Rattus norvegicus, RH7777, Example 11 table, 96 h.
[14] abbreviates: Homo sapiens, DU-145, Example 11 table, 96 h, read-out: IC50 DU145.
The mark [15] stands for this setting: Homo sapiens, Example 11 table, 96 h.
The mark [16] stands for this setting: Homo sapiens, LNCaP, Example 11 table, 96 h.
Setting [17] is: Homo sapiens, PPC-1, Example 11 table, 96 h.
The mark [18] stands for this setting: Homo sapiens, TSU-Pr1, Example 11 table, 96 h, read-out: IC50 TSU-Pr1.
Where [19] appears, read: Homo sapiens, MCF7, Example 11 table, 96 h.

On to `CCCCCCCCCCCCCCCCCCNC(=O)[C@@H]1CSC(CCCCCCCCCCCC)N1` (mixture of isomers) [Compound 7, (2RS, 4R)-2-Dodecylthiazolidine-4-carboxylic acid octadecylamide], for which the IC50 in test [1] (setting [8]) is around 20 µM; in test [2] (setting [9]), 8.9 µM; in test [3] (Homo sapiens, Table 3, 96 h), 15 µM; in test [4] (setting [10]), 11.9 µM; in test [5] (setting [11]), 13 µM; in test [6] (Homo sapiens, TSU-Pr1, Table 3, 96 h, read-out: IC50 TSU-Pr1), 10.7 µM. For the same compound, the IC50 in test [7] (setting [12]) is 10.4 µM.

Turning to `CCCCCCCCCCCCCCCCCCCCNCC(CO)NC` (stereo not shown) [S3], the half-inhibitory concentration (IC50) in test [4] (Example 10 table, 96 h) was found to be 3.3 µM; in test [7] (Example 10 table, 96 h), 2.9 µM.

With `O=c1[nH]cc(F)c(=O)[nH]1` [5-FU, 5-fluorouracil, reference compound], the IC50 came to 4.9 µM in test [4] (Homo sapiens, LNCaP, Example 10 table, 96 h) and 4.9 µM in test [4] (Homo sapiens, LNCaP, Table 6).

Take `CCCCCCCCCCCCCCCCCCNC[C@H](CO)NC` [drawing 51]: the IC50 in test [1] (setting [13]), in test [2] (setting [14]), in test [3] (setting [15]), in test [4] (setting [16]), in test [5] (setting [17]) and in test [6] (setting [18]) was above 100 µM throughout. Further, the half-inhibitory concentration (IC50) in test [7] (setting [19]) is above 100 µM.

Take `CC(C)(C)OC(=O)N[C@H](CO)C(=O)NCCCCCCCCCCCCNC(=O)[C@@H](CO)NC(=O)OC(C)(C)C`: the concentration for half-maximal inhibition (IC50) in test [1] (setting [13]) is 8.5 µM; in test [2] (setting [14]), above 20 µM; in test [3] (setting [15]), above 20 µM; in test [4] (setting [16]) it was 12.5 µM; in test [5] (setting [17]), above 20 µM; in test [6] (setting [18]), 3.7 µM. For the same compound, the IC50 in test [7] (setting [19]) was found to be 10.6 µM.

As for `CCCCCCCCCCCCCCCCCCNCCN1C(=O)CSC1c1ccccc1` (stereo not shown) [Compound 79, 3-(2-(octadecylamino)ethyl)-2-phenylthiazolidin-4-one], the IC50 in test [1] (Rattus norvegicus, RH7777, Table 7, control cell line) is above 20 µM; in test [2] (Homo sapiens, DU-145, read-out: IC50 DU-145, Table 7) it was 15.8 µM; in test [3] (Homo sapiens, Table 7) it was above 20 µM; in test [4] (Homo sapiens, LNCaP, Table 7), above 20 µM; in test [5] (Homo sapiens, PPC-1, Table 7) it was 12 µM; in test [6] (Homo sapiens, TSU-Pr1, Table 7, read-out: IC50 TSU), 6.1 µM.

Consider `N#Cc1ccc(C2N[C@H](C(=O)O)CS2)cc1` (stereo partly shown), for which the IC50 in test [1] (setting [13]), in test [2] (setting [14]), in test [3] (setting [15]), in test [4] (setting [16]), in test [5] (setting [17]) and in test [6] (setting [18]) was above 100 µM each time. Further, the half-inhibitory concentration (IC50) in test [7] (setting [19]) was above 100 µM.

Regarding `CCCCCCCCCCCCC1OC[C@@H](COP(=O)(O)O)O1.N.N` (stereo partly shown), the IC50 in test [1] (Example 11 table, 96 h) is above 100 µM; in test [2] (Example 11 table, 96 h, read-out: IC50 DU145), above 100 µM; in test [5] (Example 11 table, 96 h), above 100 µM; in test [6] (Example 11 table, 96 h, read-out: IC50 TSU-Pr1) it was above 100 µM; in test [7] (Example 11 table, 96 h), above 100 µM. The “IC50 PC-3” value in test [3] (Example 11 table, 96 h) is recorded as “No toxicity”. Further, in test [4] (Example 11 table, 96 h), the “IC50 LNCaP” value was “No toxicity”.

On to `CCCCCCCCCCCCC1N[C@H](C(=O)O)CS1` (stereo partly shown), for which the IC50 in test [1] (setting [13]) is above 20 µM; in test [2] (setting [14]) it was around 20 µM; in test [3] (setting [15]), around 20 µM; in test [4] (setting [16]) it was 16.1 µM; in test [5] (setting [17]), 12.6 µM; in test [6] (setting [18]), around 20 µM. Also, the IC50 in test [7] (setting [19]) came out at 16.3 µM.

Turning to `O=C(O)[C@@H]1CSC(c2cccnc2)N1` (stereo partly shown), the IC50 in test [1] (setting [13]) is above 100 µM; in test [2] (setting [14]), above 100 µM; in test [3] (setting [15]), above 100 µM; in test [4] (setting [16]), above 100 µM; in test [5] (setting [17]), above 100 µM; in test [6] (setting [18]), around 100 µM. In addition, in test [7] (setting [19]), the IC50 is above 100 µM.

For the compound `CCCCCCCCCCCCCCCCCCNC(=O)[C@@H]1CSC(c2ccc(C#N)cc2)N1` (mixture of isomers) [Compound 22, (2RS, 4R)-2-(4-Cyano-phenyl)-thiazolidine-4-carboxylic acid octadccylamide], the half-maximal inhibitory concentration (IC50) was above 20 µM in test [1] (Table 4, control cell line, 96 h) and above 20 µM in test [3] (Table 4, 96 h).

With `CCCCCCCCCCCCCCCCCCCNC(=O)[C@@H]1CSC(c2ccccc2)N1` (mixture of isomers) [Compound 6-HCI, (2RS, 4R)-2-Phenylthiazolidine-4-carboxylic acid nonadecylamide Hydrochloride], the 50% inhibitory concentration (IC50) is above 20 µM in test [2] (read-out: IC50 DU-145, Table 3, 96 h); 13.6 µM in test [4] (Table 3, 96 h); 16.8 µM in test [5] (Table 3, 96 h); above 20 µM in test [6] (Table 3, 96 h, read-out: IC50 TSU-Pr1); above 20 µM in test [7] (Table 8, breast cancer cell line).

As for `CCCCCCCCCCCCCCCCCCNC[C@@H](N)CO` [drawing 52], the IC50 in test [4] (setting [16]) amounted to 3.3 µM; in test [7] (setting [19]), 2.9 µM.

For `CCCCCCCCCCCCCCCCCCNCC(CO)NC` (stereo not shown) [compound 318], in test [4] (Table 9, 96 h), the IC50 was found to be 3.3 µM.

`CCCCCCCCCCCCCCCCCCNC(=O)[C@@H]1CSC(c2cccc(O)c2)N1` (mixture of isomers) [Compound 14, (2RS, 4R)-2-(3-Hydroxy-phenyl)-thiazolidine-4-carboxylic add octadecylamide]: the 50% inhibitory concentration (IC50) in test [1] (Table 3, control cell line, 96 h) stood at 31 µM.

With `CCCCCCCCCCCCCCCCCCNC(=O)[C@@H]1CSC(c2ccc(OC)cc2)N1` (mixture of isomers) [Compound 15-HCI, (2RS, 4R)-2-(4-Methoxy-phenyl)-thiazolidine-4-carboxylic acid octadecylamide Hydrochloride], the IC50 was above 20 µM in test [1] (setting [8]); 8.7 µM in test [2] (setting [9]); around 20 µM in test [3] (Homo sapiens, Table 3, 96 h); 2.1 µM in test [4] (setting [10]); 1.5 µM in test [5] (setting [11]); 16.3 µM in test [7] (setting [12]).

Regarding `COc1ccc(CCNC(=O)CN2C(=O)CSC2c2ccccc2)c(OC)c1` (stereo not shown) [Compound 78], the IC50 in test [1] (Table 6, control cell line) was above 100 µM; in test [2] (read-out: IC50 DU-145, Table 6) it was above 100 µM; in test [3] (Table 6) it was above 100 µM; in test [4] (Table 6), above 100 µM; in test [5] (Table 6) it was above 100 µM; in test [6] (Table 6, read-out: IC50 TSU-Pr1) it was above 100 µM.

(Values after US20060014740A1 (priority 2003, published 2006).)
